System: PBMCs and HCV peptide-specific T cell lines from HCV-infected subjects
Assay type: cell-based, human

Substance | T cell response to peptide, in words | response to positive control
HSKRKCDEL | no detectable response | 
phytohemagglutinin |  | uniformly positive

Source: PMC2213263 (The Journal of Experimental Medicine, 2005)
